The record followed here is ChEMBL document CHEMBL5725990, “Inhibitors of Bruton's tyrosine kinase” (2017).

Some results are limits rather than exact numbers.

The target of this experiment is Tyrosine-protein kinase BTK (Homo sapiens, UniProt Q06187). Put plainly: Btk In Vitro Inhibitory Assay: Human Btk kinase (Genbank accession # NP_000052) was purified from insect cells as a full-length construct containing a N-terminal 6×-His tag. Btk kinase activity was determined using a radiometric filter binding assay. Measurements are performed in a low μL reaction volume 384-well assay plates. BTK enzyme (8 nM final in reaction), inhibitor (at requested doses), and 0.2 mg/mL peptide substrate (Poly-Glu-Tyr, 4:1 ratio) are incubated in a reaction buffer composed of 20 mM Hepes (pH 7.5), 10 mM MgCl2, 1 mM EGTA, 0.02% Brij35, 0.02 mg/ml BSA, 0.1 mM Na3VO4, 2 mM DTT, 1% DMSO for 15 min. followed by addition of 1 μM ATP to start the assay. Kinase reactions are carried out for 120 min. at room temperature. The reaction was stopped by spotting of reaction sample onto P81 cationic exchange paper (Whatman). Unbound phosphate was removed by extensive washing of filters in 0.75% Phosphoric acid.
Chain of Tyrosine-protein kinase BTK (Q06187 whole entry): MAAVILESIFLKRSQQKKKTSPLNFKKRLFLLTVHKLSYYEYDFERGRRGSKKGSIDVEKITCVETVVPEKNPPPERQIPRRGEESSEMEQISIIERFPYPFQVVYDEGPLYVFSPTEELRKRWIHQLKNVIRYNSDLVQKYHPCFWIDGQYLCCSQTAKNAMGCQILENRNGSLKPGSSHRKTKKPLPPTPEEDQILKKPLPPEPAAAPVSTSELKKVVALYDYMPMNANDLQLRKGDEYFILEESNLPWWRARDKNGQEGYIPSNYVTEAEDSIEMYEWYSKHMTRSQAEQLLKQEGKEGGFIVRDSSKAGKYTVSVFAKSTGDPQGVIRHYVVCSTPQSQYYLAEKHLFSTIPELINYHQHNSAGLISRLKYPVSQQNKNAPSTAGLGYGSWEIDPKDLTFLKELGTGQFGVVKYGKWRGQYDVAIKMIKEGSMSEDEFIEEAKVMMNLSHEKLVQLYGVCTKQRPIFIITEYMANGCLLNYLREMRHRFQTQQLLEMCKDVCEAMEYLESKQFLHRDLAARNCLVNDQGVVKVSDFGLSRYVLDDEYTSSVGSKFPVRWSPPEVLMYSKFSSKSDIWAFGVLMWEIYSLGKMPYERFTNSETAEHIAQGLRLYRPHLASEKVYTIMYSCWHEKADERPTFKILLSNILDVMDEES

`NC(=O)c1nnc(N2CCC[C@@H](NC(=O)c3ccc4nccn4c3)C2)nc1Nc1ccc(C(=O)N2CCOCC2)cc1`: the IC50 was less than 10 nM.

Consider `NC(=O)c1ncc(N2CCC[C@@H](N3CCN(c4cccc(Cl)c4)C3=O)C2)nc1Nc1ccc(C2CCN(C3CCCC3)CC2)cc1`, for which the IC50 is less than 10 nM.

As usually defined, the IC50 is the point on the concentration scale where inhibition reaches its midpoint.
